Data as given in publication PMC9811465, “Structure-Based Discovery of Small-Molecule Inhibitors of the Autocatalytic Proliferation of α-Synuclein Aggregates” (Molecular Pharmaceutics, 2022).

Columns and labels:
[1] = target: T1, α-synuclein (Homo sapiens, UniProt P37840); assay: ThT seeded aggregation kinetics; half-time increased […] times at […] molar equivalents; weakest, not significant at […] equivalents; format: biochemical
T1 construct: gene SNCA

[2] = target: T2, α-synuclein (fibrils) (Homo sapiens, UniProt P37840); assay: fluorescence polarization with fibrils (Kd in monomer equivalents); supported by mass spectrometry pull-down, fluorescence colocalization and aggregation kinetics; format: binding
T2 construct: gene SNCA; recombinant human α-synuclein, preformed amyloid fibrils

ThT seeded aggregation kinetics; half-time increased 1.5 times at 10 molar equiv [1] | Kd [2] [µM] | SMILES
1.5 fold increase in half-time (t1/2) |  | Cc1nc2ccccn2c1C(=O)NCc1nccnc1-c1ccco1 [A, compound A]
 | ~4 | Cc1c(OCc2nnn[nH]2)ccc2c1oc(=O)c1ccccc12 [C, compound C]
